Columns and labels:
Format in all cases: in vivo
[1] = tested on: chickweed (Stellaria media); test: Test B postemergence plant response; conditions: Postemergence
Method in brief: (§1)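 Plants grown in peat/vermiculite medium were sprayed postemergence at 2–18 cm height (1- to 4-leaf stage). After 13–15 days in the greenhouse, response was rated visually against untreated controls on a 0–100 scale (0 no effect, 100 complete control).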

[2] = tested on: canarygrass (Phalaris minor); test: Test B postemergence plant response; conditions: Postemergence
Method in brief: as §1

[3] = tested on: windgrass (Apera spica-venti); test: Test B postemergence plant response; conditions: Postemergence
Method in brief: as §1

[4] = tested on: cocklebur (Xanthium strumarium); test: Test B pre-/postemergence plant response
Excerpt: (§2) Seeds of plant species selected from blackgrass (Alopecurus myosuroides), downy bromegrass (Bromus tectorum), green foxtail (Setaria viridis), Italian ryegrass (Lolium multiflorum), wheat (Triticum aestivum), wild oat (Avena fatua), deadnettle (henbit deadnettle, Lamium amplexicaule), galium (catchweed bedstraw, Galium aparine), bermudagrass (Cynodon dactylon), Surinam grass (Brachiaria decumbens), cocklebur (Xanthium strumarium), corn (Zea mays), large crabgrass (Digitaria sanguinalis), woolly cupgrass (Eriochloa villosa), giant foxtail (Setaria faberii), goosegrass (Eleusine indica), johnsongrass (Sorghum halepense), kochia (Kochia scoparia), lambsquarters (Chenopodium album), morningglory (Ipomoea coccinea), nightshade (eastern black nightshade, Solanum ptycanthum), yellow nutsedge (Cyperus esculentus), pigweed (Amaranthus retroflexus), ragweed (common ragweed, Ambrosia elatior), Russian thistle (Salsola kali), soybean (Glycine max), sunflower (common oilseed sunflower, Helianthus annuus) and velvetleaf (Abutilon theophrasti) were planted into a blend of loam soil and sand and treated preemergence with test compounds formulated in a non-phytotoxic solvent mixture which included a surfactant.
(§3) At the same time, plants selected from these crop and weed species and also winter barley (Hordeum vulgare), canarygrass (Phalaris minor), chickweed (Stellaria media) and windgrass (Apera spica-venti) were planted in pots containing Redi-Earth® planting medium (Scotts Company, 14111 Scottslawn Road, Marysville, Ohio 43041) comprising spaghnum peat moss, vermiculite, wetting agent and starter nutrients and treated with postemergence applications of some of the test chemicals formulated in the same manner. Plants ranged in height from 2 to 18 cm (1- to 4-leaf stage) for postemergence treatments.
(§4) Treated plants and controls were maintained in a greenhouse for 13 to 15 days, after which time all treated plants were visually evaluated and compared to controls. Plant response ratings, summarized in Table B, are based on a scale of 0 to 100 where 0 is no effect and 100 is complete control. A dash (-) response means no test result.

[5] = tested on: green foxtail (Setaria viridis); test: Test B pre-/postemergence plant response
Excerpt: as §2, §3, §4

[6] = tested on: blackgrass (Alopecurus myosuroides); test: Test B pre-/postemergence plant response
Excerpt: as §2, §3, §4

[7] = tested on: velvetleaf (Abutilon theophrasti); test: Test B pre-/postemergence plant response
Excerpt: as §2, §3, §4

wild oat (Avena fatua) = test: Test B pre-/postemergence plant response
Excerpt: as §2, §3, §4

kochia (Kochia scoparia) = test: Test B pre-/postemergence plant response
Excerpt: as §2, §3, §4

[8] = tested on: downy bromegrass (Bromus tectorum); test: Test B pre-/postemergence plant response
Excerpt: as §2, §3, §4

[9] = tested on: johnsongrass (Sorghum halepense); test: Test B pre-/postemergence plant response
Excerpt: as §2, §3, §4

[10] = tested on: wheat (Triticum aestivum); test: Test B pre-/postemergence plant response
Excerpt: as §2, §3, §4

[11] = tested on: ragweed (common ragweed, Ambrosia elatior); test: Test B pre-/postemergence plant response
Excerpt: as §2, §3, §4

[12] = tested on: yellow nutsedge (Cyperus esculentus); test: Test B pre-/postemergence plant response
Excerpt: as §2, §3, §4

[13] = tested on: giant foxtail (Setaria faberii); test: Test B pre-/postemergence plant response
Excerpt: as §2, §3, §4

[14] = tested on: bermudagrass (Cynodon dactylon); test: Test B pre-/postemergence plant response
Excerpt: as §2, §3, §4

[15] = tested on: morningglory (Ipomoea coccinea); test: Test B pre-/postemergence plant response
Excerpt: as §2, §3, §4

soybean (Glycine max) = test: Test B pre-/postemergence plant response
Excerpt: as §2, §3, §4

[16] = 31 g ai/ha, scale 0 to 100 (0 no effect, 100 complete control)
[17] = 62 g ai/ha, scale 0 (no effect) to 100 (complete control), 13 to 15 days
[18] = 125 g ai/ha, visual rating after 13 to 15 days, scale 0 (no effect) to 100 (complete control)
[19] = 250 g ai/ha, Preemergence, 0 to 100 scale
[20] = Postemergence, 31 g ai/ha, scale 0 to 100 (0 no effect, 100 complete control)
[21] = Postemergence, 62 g ai/ha, scale 0 (no effect) to 100 (complete control), 13 to 15 days
[22] = Postemergence, 125 g ai/ha, visual rating after 13 to 15 days, scale 0 (no effect) to 100 (complete control)
[23] = Postemergence, 250 g ai/ha, scale 0 to 100
[24] = Preemergence, 31 g ai/ha, scale 0 to 100 (0 no effect, 100 complete control)
[25] = Preemergence, 62 g ai/ha, scale 0 to 100, 0 no effect, 100 complete control
[26] = Preemergence, 125 g ai/ha, 0 to 100 scale

5-[(2-hydroxy-6-oxo-1-cyclohexen-1-yl)carbonyl]-3-phenyl-2-(3-pyridinyl)-4(3H)-pyrimidone [Compound 113]
0: Plant response rating, Canarygrass [2, 16] | Plant response rating, Canarygrass [2, 17] | Plant response rating, Canarygrass [2, 18] | Canarygrass plant response rating ([2]; 250 g ai/ha, scale 0 to 100) | Plant response rating, Cocklebur [4, 24] | Plant response rating, Cocklebur [4, 25] | Cocklebur plant response rating [4, 26] | Plant response rating, Foxtail, Green [5, 19] | Plant response rating, Foxtail, Green [5, 24] | Plant response rating, Foxtail, Green [5, 25] | Foxtail, Green plant response rating [5, 26] | Plant response rating, Blackgrass [6, 19] | Plant response rating, Blackgrass [6, 20] | Plant response rating, Blackgrass [6, 21] | Plant response rating, Blackgrass [6, 22] | Plant response rating, Blackgrass [6, 24] | Plant response rating, Blackgrass [6, 25] | Blackgrass plant response rating [6, 26] | Plant response rating, Oat, Wild (wild oat (Avena fatua); [19]) | Plant response rating, Oat, Wild (wild oat (Avena fatua); [20]) | Plant response rating, Oat, Wild (wild oat (Avena fatua); [21]) | Plant response rating, Oat, Wild (wild oat (Avena fatua); [22]) | Plant response rating, Oat, Wild (wild oat (Avena fatua); [24]) | Plant response rating, Oat, Wild (wild oat (Avena fatua); [25]) | Oat, Wild plant response rating (wild oat (Avena fatua); [26]) | Plant response rating, Kochia (kochia (Kochia scoparia); [20]) | Plant response rating, Bromegrass, Downy [8, 19] | Plant response rating, Bromegrass, Downy [8, 20] | Plant response rating, Bromegrass, Downy [8, 21] | Plant response rating, Bromegrass, Downy [8, 24] | Plant response rating, Bromegrass, Downy [8, 25] | Bromegrass, Downy plant response rating [8, 26] | Plant response rating, Johnsongrass [9, 19] | Plant response rating, Johnsongrass [9, 20] | Plant response rating, Johnsongrass [9, 21] | Plant response rating, Johnsongrass [9, 22] | Johnsongrass plant response rating [9, 23] | Plant response rating, Johnsongrass [9, 24] | Plant response rating, Johnsongrass [9, 25] | Johnsongrass plant response rating [9, 26] | Plant response rating, Wheat [10, 19] | Plant response rating, Wheat [10, 20] | Plant response rating, Wheat [10, 21] | Plant response rating, Wheat [10, 24] | Plant response rating, Wheat [10, 25] | Wheat plant response rating [10, 26] | Plant response rating, Ragweed [11, 24] | Plant response rating, Ragweed [11, 25] | Plant response rating, Nutsedge, Yellow [12, 20] | Plant response rating, Nutsedge, Yellow [12, 21] | Plant response rating, Nutsedge, Yellow [12, 22] | Nutsedge, Yellow plant response rating [12, 23] | Plant response rating, Nutsedge, Yellow [12, 24] | Plant response rating, Foxtail, Giant [13, 24] | Plant response rating, Foxtail, Giant [13, 25] | Foxtail, Giant plant response rating [13, 26] | Plant response rating, Bermudagrass [14, 24] | Plant response rating, Bermudagrass [14, 25] | Plant response rating, Morningglory [15, 25] | Morningglory plant response rating [15, 26] | Plant response rating, Soybean (soybean (Glycine max); [24]) | Plant response rating, Soybean (soybean (Glycine max); [25])
25: Plant response rating, Foxtail, Giant [13, 19]
10: Oat, Wild plant response rating (wild oat (Avena fatua); [23]) | Plant response rating, Wheat [10, 22] | Plant response rating, Nutsedge, Yellow [12, 25]
65: Plant response rating, Cocklebur [4, 22] | Plant response rating, Ragweed [11, 21] | Plant response rating, Bermudagrass ([14]; Postemergence, 125 g ai/ha, scale 0 to 100 (0 no effect, 100 complete control), 13 to 15 days) | Plant response rating, Soybean (soybean (Glycine max); [21])
98: Velvetleaf plant response rating [7, 23] | Plant response rating, Bermudagrass [14, 19]
20: Plant response rating, Foxtail, Green [5, 21] | Plant response rating, Foxtail, Giant [13, 20] | Plant response rating, Morningglory [15, 19] | Morningglory plant response rating [15, 23] | Soybean plant response rating (soybean (Glycine max); [26])
75: Plant response rating, Cocklebur [4, 19] | Plant response rating, Soybean (soybean (Glycine max); [22])
40: Foxtail, Green plant response rating [5, 23] | Plant response rating, Velvetleaf [7, 24]
5: Plant response rating, Windgrass [3, 16] | Plant response rating, Windgrass [3, 17] | Plant response rating, Windgrass [3, 18] | Windgrass plant response rating ([3]; 250 g ai/ha, scale 0 to 100) | Plant response rating, Foxtail, Green [5, 20] | Blackgrass plant response rating [6, 23] | Plant response rating, Bromegrass, Downy [8, 22] | Bromegrass, Downy plant response rating [8, 23]
90: Plant response rating, Chickweed [1, 18] | Plant response rating, Velvetleaf [7, 22] | Plant response rating, Ragweed [11, 19]
30: Plant response rating, Foxtail, Green [5, 22] | Plant response rating, Soybean (soybean (Glycine max); [19])
35: Plant response rating, Bermudagrass [14, 20]
85: Plant response rating, Velvetleaf [7, 25] | Ragweed plant response rating [11, 23] | Bermudagrass plant response rating [14, 26] | Soybean plant response rating (soybean (Glycine max); [23])
80: Plant response rating, Chickweed [1, 17] | Plant response rating, Velvetleaf [7, 21] | Plant response rating, Ragweed [11, 22]
55: Plant response rating, Nutsedge, Yellow [12, 19] | Plant response rating, Foxtail, Giant [13, 21] | Plant response rating, Foxtail, Giant [13, 22]
100: Chickweed plant response rating ([1]; 250 g ai/ha, scale 0 to 100) | Plant response rating, Velvetleaf [7, 19] | Velvetleaf plant response rating [7, 26] | Plant response rating, Kochia (kochia (Kochia scoparia); [19]) | Plant response rating, Kochia (kochia (Kochia scoparia); [25]) | Kochia plant response rating (kochia (Kochia scoparia); [26])
45: Plant response rating, Cocklebur [4, 20] | Plant response rating, Cocklebur [4, 21] | Plant response rating, Kochia (kochia (Kochia scoparia); [21]) | Plant response rating, Kochia (kochia (Kochia scoparia); [22]) | Plant response rating, Bermudagrass [14, 21]
15: Plant response rating, Kochia (kochia (Kochia scoparia); [24]) | Wheat plant response rating [10, 23] | Ragweed plant response rating [11, 26] | Nutsedge, Yellow plant response rating [12, 26] | Plant response rating, Morningglory [15, 20] | Plant response rating, Morningglory [15, 21] | Plant response rating, Morningglory [15, 22]
60: Plant response rating, Chickweed [1, 16] | Foxtail, Giant plant response rating [13, 23] | Plant response rating, Soybean (soybean (Glycine max); [20])
70: Cocklebur plant response rating [4, 23] | Plant response rating, Velvetleaf [7, 20] | Bermudagrass plant response rating [14, 23]
50: Kochia plant response rating (kochia (Kochia scoparia); [23]) | Plant response rating, Ragweed [11, 20]

Reference: patent publication US8952024B2, “Herbicidal pyrimidone derivatives” (E I du Pont de Nemours and Company, priority 2009, dated 2015)
